Measurements from patent US6764833B1, “Mutated Src oncogene composition and methods” (University of South Florida, priority 1999, dated 2004).

Biological target: T1, pp60c-Src (Homo sapiens, UniProt P12931)
T1 construct: made in house; elsewhere 3Y1 rat fibroblasts are transfected with pcSrc531RI (pcDNA3.1)
Test: Competitive inhibition of enolase phosphorylation by Src kinase
Assay type: biochemical
Details: 1 μM acid treated enolase; read-out: K50% competitive inhibition of enolase phosphorylation
Procedure: A library of peptides to be tested as antagonists of pp60 c-Src mutant tyrosine kinase are synthesized according to the procedure disclosed in U.S. Pat. No. 5,532,167 to Cantley, which is incorporated herein by way of reference. Accordingly a peptide Ala-Glu-Glu-Glu-Ile-Tyr-Gly-Glu-Phe-Glu-Ala-Lys-Lys-Lys-Lys is synthesized as an optimal substrate/antagonist for mutant Src tyrosine kinase. The kinetic studies are carried out as follows. Purified mutant kinase is immobilized on protein A beads and kinase reaction is performed in 20 μl of 50 mM Tris pH 7.0 buffer containing 50 mM NaCl, 10 mM MgCl2, 10 μM ATP 5 μCi [gamma-^32P]-ATP (3000 mCi/mmol, NEN) and various dilutions of the peptide. For the experiment measuring the competitive inhibition of c-Src activity by the Src motif-containing peptide, 1 μM (final concentration) acid treated enolase (trans-phosphorylation) is included. After 2.5 minutes incubation, the supernatants are spotted on phosphocellulose paper, washed four times with 75 mM phosphoric acid, and radioactivity counted in a scintillation counter. For phosphorylation of enolase, the reaction is stopped by adding SDS loading buffer and the proteins are resolved on 10% SDS-PAGE gels. The Km and Vmax are calculated using a standard computer software. The peptide is a good substrate for pp60c-Src, with Km of 2 μM and Vmax of 0.9 μM/mg/min. […]

T1 sequence (P12931 2-530): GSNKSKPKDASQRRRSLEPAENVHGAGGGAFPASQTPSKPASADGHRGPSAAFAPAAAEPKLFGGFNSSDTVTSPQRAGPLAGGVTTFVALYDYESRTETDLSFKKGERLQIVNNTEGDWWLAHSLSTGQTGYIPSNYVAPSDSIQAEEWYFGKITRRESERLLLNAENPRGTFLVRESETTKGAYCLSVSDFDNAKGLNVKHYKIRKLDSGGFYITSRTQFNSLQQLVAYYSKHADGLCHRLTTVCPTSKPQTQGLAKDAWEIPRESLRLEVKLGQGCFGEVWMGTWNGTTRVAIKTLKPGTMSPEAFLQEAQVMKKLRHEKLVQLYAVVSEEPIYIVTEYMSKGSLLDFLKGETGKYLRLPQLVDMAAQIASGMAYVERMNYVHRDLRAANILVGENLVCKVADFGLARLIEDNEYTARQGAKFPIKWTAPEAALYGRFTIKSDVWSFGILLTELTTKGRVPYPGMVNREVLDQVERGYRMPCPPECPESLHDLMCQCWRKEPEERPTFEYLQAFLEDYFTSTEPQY

## CC[C@H](C)[C@H](NC(=O)[C@H](CCC(=O)O)NC(=O)[C@H](CCC(=O)O)NC(=O)[C@H](CCC(=O)O)NC(=O)[C@H](C)N)C(=O)N[C@@H](Cc1ccc(O)cc1)C(=O)NCC(=O)N[C@@H](CCC(=O)O)C(=O)N[C@@H](Cc1ccccc1)C(=O)N[C@@H](CCC(=O)O)C(=O)N[C@@H](C)C(=O)N[C@@H](CCCCN)C(=O)N[C@@H](CCCCN)C(=O)N[C@@H](CCCCN)C(=O)N[C@@H](CCCCN)C(=O)O [Ala-Glu-Glu-Glu-Ile-Tyr-Gly-Glu-Phe-Glu-Ala-Lys-Lys-Lys-Lys]
  IC50: 5 µM
